Consider 103 compounds from PubChem BioAssay AID1996.

The structures appear in SMILES notation. In brackets after ≈: the same amount, converted by molar mass.

For this series the following is noted: buffer; pH 7.4; 200.0 µM.
Turning to `Cc1ccc(CN(C)C(=O)c2c(C)nn(-c3ccccc3)c2C)cc1`, the solubility (kinetic) (commonly the concentration staying in solution when a stock, usually in DMSO, is diluted into the medium) is over 50 µg/mL.
The figure for `COc1ccc(NCc2nc3ccccc3n2C)cc1` is 35 µg/mL (≈ 131 µM); for `O=C1NC(=O)c2cc3ccccc3cc21` it is 10.6 µg/mL (≈ 53.8 µM); for `COCCCNC(=O)C1CC(=O)N(CCc2ccc(F)cc2)C1` (stereo not drawn) it is over 48.4 µg/mL.
The figure for `O=C1C2C3C=CC(CC3)C2C(=O)N1c1ccc(F)cc1` (stereo not drawn) is 17.9 µg/mL (≈ 66 µM); for `Cc1nnc(SCC(=O)NC(=O)NCc2ccco2)s1` it is over 46.9 µg/mL.
The figure for `C#CC1(NC(=O)NC(=O)c2c(F)cccc2F)CCCCC1` is 0.6 µg/mL (≈ 1.96 µM).
`CC1(C)C(=O)Nc2ccccc2N1C(=O)COC(=O)c1ccc([N+](=O)[O-])o1` registered a kinetic solubility of 12.1 µg/mL (≈ 32.4 µM).
The figure for `O=C(Nc1ccc(F)cc1)C(Cc1ccccc1)n1cccc1` (stereo not drawn) is 31.4 µg/mL (≈ 102 µM); for `CC(=O)c1c(C)[nH]c(C(=O)OCc2csc(CC(=O)Nc3ccccc3C)n2)c1C` it is 4.2 µg/mL (≈ 9.87 µM); for `Cc1cc(C)cc(NC(=O)NCc2ccccn2)c1` it is over 38.3 µg/mL.
Compound `Cc1ccc(NC(=O)CCN2CC(C)OC(C)C2)cc1.Cl` (stereo not drawn) registered a solubility (kinetic) of over 46.9 µg/mL.
The figure for `CN(c1ccc(C(=O)COC(=O)C2CC2)cc1)S(C)(=O)=O` is over 46.7 µg/mL; for `CCc1ccccc1N1C(=O)CC(Sc2nccc(C)n2)C1=O` (stereo not drawn) it is 47.3 µg/mL (≈ 144 µM).
As for `FC(F)Oc1ccc(NC(=S)NC2CCCCCCC2)cc1`, the figure is 0.7 µg/mL (≈ 2.13 µM).
Compound `FC(F)(F)c1cccc(-c2nc(COc3ccc(Cl)cc3Cl)no2)c1` showed a solubility (kinetic) of under 0.4 µg/mL.
As for `O=C(NC(=S)Nc1ccc(Cl)cc1)c1cncc(Br)c1`, the figure is 3.4 µg/mL (≈ 9.17 µM).
As for `COc1ccc(CCNC(=O)CN(C)S(=O)(=O)c2ccc(OC)cc2)cc1`, the figure is over 58.9 µg/mL; as for `Cl.Oc1cccc(Nc2ncnc3c2oc2ccccc23)c1`, 2.3 µg/mL.
The figure for `COc1ccccc1NC(=S)NC(=O)/C=C/c1cccs1` is 0.4 µg/mL (≈ 1.26 µM); for `CN(C)S(=O)(=O)c1cccc(NC(=S)NCc2ccco2)c1` it is over 50.9 µg/mL; for `CCNC(=O)CC1C(=O)N(CC)C(=S)N1NC(=O)c1ccccc1` (stereo not drawn) it is over 52.3 µg/mL.
Consider `O=C1NC2=C(C(=O)CCC2)C(c2ccc([N+](=O)[O-])cc2)N1` (stereo not drawn), for which the kinetic solubility was over 43.1 µg/mL.
The figure for `CC(=NCc1ccco1)c1c(O)n(-c2ccc(C)cc2)c(=O)[nH]c1=O` is 12.5 µg/mL (≈ 36.8 µM); for `O=C1CN(C(=O)/C=C/c2ccccc2F)c2ccccc2N1` it is 12.9 µg/mL (≈ 43.5 µM); for `Cc1c(O)c(CN(C)C)cc2c1oc(=O)c1ccccc12` it is over 42.5 µg/mL.
As for `CC(C)OCc1ccc(C(=O)N2CCN(CC(=O)N3CCCC3)CC2)cc1`, the kinetic solubility was over 56 µg/mL.
Compound `CN1CCN(C(=O)N(c2ccccc2)c2ccccc2)CC1.Cl` yielded a kinetic solubility of over 49.8 µg/mL.
The compound `CC(CN1CCN(C)CC1)OC(=O)c1cccc(F)c1.Cl` (stereo not drawn) yielded a solubility (kinetic) of over 47.5 µg/mL.
As for `O=C(C1CCCO1)N1CCN(c2ccccn2)CC1` (stereo not drawn), the figure is 36.8 µg/mL (≈ 141 µM); as for `Cc1ccc(C(=O)OCC(=O)NC2CCCc3ccccc32)o1` (stereo not drawn), 13.1 µg/mL (≈ 41.8 µM).
As for `O=C1CC(c2ccccc2)CC(O)=C1C=NCCc1ccccc1` (stereo not drawn), the figure is 2.1 µg/mL (≈ 6.57 µM).
As for `CC(=O)c1c(COC(=O)c2ccc(F)cc2)nc2ccccc2[n+]1[O-]`, the figure is 2.4 µg/mL (≈ 7.05 µM); as for `Cc1ccc(-c2noc(=O)n2CC(=O)c2ccc(Cl)cc2)cc1`, under 0.4 µg/mL; as for `O=C(NC(=S)Nc1cccc(-c2ccc(CO)o2)c1)c1cccs1`, 4.7 µg/mL (≈ 13.1 µM).
`O=C(CCCCC(=O)Nc1ccc(F)cc1F)Nc1ccc(F)cc1F` registered a solubility (kinetic) of 4.4 µg/mL (≈ 11.9 µM).
As for `CC(C)N(C(=O)COC(=O)c1ccc(Cl)nc1)C(C)C`, the figure is 30.7 µg/mL (≈ 103 µM); as for `CS(=O)(=O)c1ccc2nc(NC(=O)C3CCCO3)sc2c1` (stereo not drawn), 43.8 µg/mL (≈ 134 µM); as for `Cc1ccc(S(=O)(=O)N2CCN(Cc3cccnc3)CC2)cc1`, over 49.7 µg/mL.
As for `CC(OC(=O)COc1ccccc1)C(=O)NC1CCCC1` (stereo not drawn), the figure is over 43.7 µg/mL; as for `Clc1cccc(Nc2nc(-c3ccncc3)nc3ccccc23)c1`, under 0.2 µg/mL; as for `CCc1cccc(OCC2Cn3c(nc4c3c(=O)n(C)c(=O)n4C)O2)c1` (stereo not drawn), 28.2 µg/mL (≈ 79.1 µM).
As for `O=C(CCC(=O)OCC(F)(F)C(F)F)Nc1ccccc1F`, the figure is over 48.8 µg/mL; as for `Cc1ccc(NC(=O)Cn2cc(C(=O)C3CC3)c3ccccc32)cc1`, under 0.4 µg/mL.
Regarding `NC(=O)CSc1nc(C23CC4CC(CC(C4)C2)C3)nc2ccccc12`, the solubility (kinetic) is 1.2 µg/mL (≈ 3.39 µM).
Compound `Cc1ccccc1S(=O)(=O)/N=C(/c1ccccc1)N(C)C` came in with a kinetic solubility of 44.9 µg/mL (≈ 148 µM).
As for `O=[N+]([O-])c1ccc(N2CCN(c3ccccc3Cl)CC2)cn1`, the figure is 2 µg/mL (≈ 6.27 µM).
As for `Cc1cccc(NC(=O)c2ccc(N3CCOCC3)c([N+](=O)[O-])c2)n1`, the figure is 38.1 µg/mL (≈ 111 µM); as for `Cc1cc(=O)[nH]c(SCC(=O)Nc2ccccc2[N+](=O)[O-])n1`, over 48 µg/mL.
The figure for `Cc1cccc(NC(=O)CCNC(=O)c2ccccc2Cl)n1` is over 47.7 µg/mL.
In turn, `COc1cccc(NC(=O)C2CCN(c3cnccn3)CC2)c1` had a solubility (kinetic) of over 46.9 µg/mL.
As to `Cc1ccc([N+](=O)[O-])c(OCCCN2C(=O)NC(C)(C)C2=O)c1`, the solubility (kinetic) was over 48.2 µg/mL.
As for `Cc1ccc(C(=O)NCCc2ccc(F)cc2)s1`, the figure is 5.6 µg/mL (≈ 21.3 µM); as for `COc1ccc(NS(=O)(=O)c2cccs2)cn1`, over 40.5 µg/mL.
Consider `COc1ccc(C(=O)N2CCCN(C)CC2)c(OC)c1`, for which the solubility (kinetic) worked out at 36.5 µg/mL (≈ 131 µM).
As for `CCCc1cc(=O)[nH]c(SCCc2ccccc2)n1`, the figure is 17.4 µg/mL (≈ 63.4 µM); as for `CN1CCC(N(C)C(=O)c2ccccc2F)CC1.Cl`, 42.9 µg/mL.
The figure for `CC(=O)c1sc(-c2ccc(F)cc2)cc1NS(=O)(=O)c1ccccc1` is 0.9 µg/mL (≈ 2.4 µM); for `COc1ccccc1C(=O)NCCC(=O)NCC1CCCO1` (stereo not drawn) it is over 46 µg/mL; for `CN(CCN1CCOCC1)Cc1nc(-c2ccc3c(c2)OCO3)no1` it is 48.5 µg/mL (≈ 140 µM).
The compound `COc1ccc(Cl)cc1C(=O)O/N=C(\N)c1ccccn1` showed a solubility (kinetic) of over 45.9 µg/mL.
The figure for `COC(=O)c1c(C)[nH]c(C(=O)OCC(=O)c2ccc(C)s2)c1C` is 5.7 µg/mL (≈ 17 µM); for `CC(=O)Nc1nonc1NC(=O)COc1ccccc1` it is over 41.4 µg/mL.
The compound `Cc1ccccc1-c1nnc(SCC(=O)N(C)C2CCS(=O)(=O)C2)n1C` (stereo not drawn) returned a solubility (kinetic) of over 59.2 µg/mL.
The figure for `Cc1ccc(C(OC(=O)c2ccco2)C(=O)NC2CCCC2)cc1` (stereo not drawn) is 2 µg/mL (≈ 6.11 µM).
For `CN(CC(=O)NC1CC1)S(=O)(=O)c1cc(Cl)ccc1Cl`, the kinetic solubility is over 50.6 µg/mL.
As for `CCOc1ccccc1NC(=O)COC(=O)c1cc(C)oc1C`, the figure is 2.2 µg/mL (≈ 6.93 µM); as for `COc1ccccc1C(=O)NCCCNC(=O)c1cnccn1`, 36.6 µg/mL (≈ 116 µM); as for `O=C1NN=C(c2ccccc2)CC1c1c[nH]c2ccccc12` (stereo not drawn), over 43.4 µg/mL.
As for `O=C(CSc1ccccc1C(=O)N1CCN(c2ccc([N+](=O)[O-])cc2)CC1)N1CCCC1`, the figure is over 68.2 µg/mL; as for `Nc1nc(-c2ccc(Oc3ccccc3)cc2)c(CC(=O)O)s1`, over 49 µg/mL; as for `CC(C)N(Cc1cc2ccccc2[nH]c1=O)C(=O)c1ccco1`, over 46.6 µg/mL.
The figure for `O=C(O/N=C(/c1ccccc1)c1ccncc1)c1ccccc1[N+](=O)[O-]` is 8.3 µg/mL (≈ 23.9 µM); for `O=C(COC(=O)c1ccc(F)cc1F)Nc1ncccn1` it is over 44 µg/mL; for `Cc1cccc(OCc2nc3ccccc3n2C)c1.Cl` it is 30.4 µg/mL.
`Nc1c(C(=O)CSc2ccccn2)c(=O)[nH]c(=O)n1C1CC1` returned a kinetic solubility of 24.6 µg/mL (≈ 77.3 µM).
The figure for `CCC1(CC)Cc2ccccc2C(=O)N1` is over 30.5 µg/mL.
The figure for `Cc1ccccc1-c1noc(-c2ccccc2C(=O)NCC2CCCO2)n1` (stereo not drawn) is 49.6 µg/mL (≈ 136 µM).
As for `Cc1ccc(C(=O)NCC(=O)NC2CC2)cc1`, the figure is 33.4 µg/mL (≈ 144 µM); as for `Cn1c(=O)cc(Nc2ccc(Cl)cc2)[nH]c1=O`, 8.7 µg/mL (≈ 34.6 µM); as for `CCc1noc(C)c1C(=O)Nc1ccc(C#N)cc1`, over 38.3 µg/mL.
`Cc1ccc(NC(=O)c2cnc3ccccc3n2)cc1C` yielded a solubility (kinetic) of 0.3 µg/mL (≈ 1.08 µM).
As for `NC(=O)c1ccccc1NC(=O)Nc1ccc(F)c(Cl)c1`, the figure is 2.1 µg/mL (≈ 6.82 µM); as for `CCC(CC)c1nnc(NC(=O)c2cccc(S(=O)(=O)N3CCOCC3)c2)s1`, over 63.7 µg/mL; as for `Cc1nnc(SC(C)C#N)n1-c1ccccc1` (stereo not drawn), over 36.6 µg/mL.
As for `COc1ccc(NC(=O)NC2(C(=O)N3CCOCC3)CCCCC2)cc1`, the figure is 43 µg/mL (≈ 119 µM).
In the case of `COc1ccc(N2C(=O)C(F)(F)C2c2ccc(C)cc2)cc1OC` (stereo not drawn), the solubility (kinetic) was under 0.7 µg/mL.
As for `COC(=O)C1=C(C)NC(=O)NC1c1ccco1` (stereo not drawn), the figure is 27.8 µg/mL (≈ 118 µM); as for `CCC(NC(=O)c1cncc(Br)c1)c1ccccc1` (stereo not drawn), over 47.9 µg/mL; as for `Cc1ccccc1NC(=O)C(Cc1ccccc1)n1cccc1` (stereo not drawn), 7.4 µg/mL (≈ 24.3 µM).
The figure for `O=C(O)COCc1nc2ccccc2s1` is 31.7 µg/mL (≈ 142 µM); for `Cc1ccc(OCCNC(=O)c2ccccc2F)cc1` it is 36.5 µg/mL (≈ 134 µM).
The figure for `CC1CC(C)CN(CC(=O)c2c[nH]c3ccccc23)C1` (stereo not drawn) is 37.8 µg/mL (≈ 140 µM); for `Cc1ccc(-c2cc(C(=O)NC3CCCCC3)no2)cc1` it is under 0.3 µg/mL; for `CS(=O)(=O)N(CC(=O)Nc1ccc(Br)cc1F)C1CCCCC1` it is over 61.1 µg/mL.
The compound `Cc1sc(NC(=O)CN2CCOCC2)c(C#N)c1C` came in with a kinetic solubility of over 41.9 µg/mL.
The figure for `CCCc1cnc(N2CCN(S(C)(=O)=O)CC2)nc1` is over 42.7 µg/mL; for `Cc1ccc(-n2c(C)cc(=O)cc2C)cc1[N+](=O)[O-]` it is over 38.7 µg/mL; for `O=C(Nc1cccc(F)c1)Nc1cnccn1` it is 6.1 µg/mL (≈ 26.3 µM).
The figure for `CN1CCN(c2ccc(S(=O)(=O)N3CCOCC3)cc2NC(=O)CSCc2ccccc2)CC1` is over 75.7 µg/mL; for `O=C(CCc1nc2ccccc2s1)NCc1ccccc1F` it is over 47.2 µg/mL; for `COc1cc(/C=C/C(=O)OCC(=O)NCCCc2ccccc2)ccc1O` it is 52.9 µg/mL (≈ 143 µM).
As for `CC1Cc2ccccc2N1S(=O)(=O)c1cnc(Cl)c(Cl)c1` (stereo not drawn), the figure is 0.6 µg/mL (≈ 1.75 µM).
